Results taken from ChEMBL document CHEMBL1127088, “Analogues of platelet activating factor. 8. Antagonists of PAF containing an aromatic ring linked to a pyridinium ring” (J Med Chem, 1993).

The compounds below were run against Platelet-activating factor receptor (Mus musculus) (UniProt Q62035) (assay: Protection of PAF induced lethality in mouse after intraperitoneal dose of 1 mg/kg in saline 0.5 hr prior to an LD90 of PAF). Settings: not given.
Sequence of Platelet-activating factor receptor (Mus musculus) (Q62035 whole entry): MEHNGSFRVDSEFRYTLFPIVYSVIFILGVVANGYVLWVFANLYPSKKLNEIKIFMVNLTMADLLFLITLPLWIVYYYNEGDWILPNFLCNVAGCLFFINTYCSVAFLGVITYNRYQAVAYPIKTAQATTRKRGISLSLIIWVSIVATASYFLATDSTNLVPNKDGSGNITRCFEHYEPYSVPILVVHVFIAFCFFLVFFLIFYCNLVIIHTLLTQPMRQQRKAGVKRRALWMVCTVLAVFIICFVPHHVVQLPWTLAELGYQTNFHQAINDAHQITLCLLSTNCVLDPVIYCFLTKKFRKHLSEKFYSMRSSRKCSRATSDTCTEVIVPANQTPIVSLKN
Assay type: functional, organism-based
Parameters: dose 1 mg/kg
In the case of `CCCCCCCCCCCCCCOc1cc(C(=O)N(Cc2cccc[n+]2C)C(C)=O)ccc1OC`, the Survival is reported as 21%. Work on `CCCCCCCCCCCCCCOc1ccc(COC(=O)N(Cc2cccc[n+]2C)C(C)=O)cc1` yielded a Survival of 40%. `CCCCCCCCCCCCCCOc1ccc(C(=O)N(Cc2cccc[n+]2CCC)C(C)=O)cc1OC` was tested, and the Survival was 47%. In the case of `CCCCCCCCCCCCCCOc1ccc(CNC(=O)c2cccc[n+]2CC)cc1`, the Survival is reported as 36%. `CCCCCCCCCCCCCCOc1ccc(C(=O)N(Cc2cc[n+](C)cc2)C(C)=O)cc1C(C)(C)C` showed a Survival of 27%. Compound `CCCCCCCCCCOc1ccc(C(=O)N(Cc2cccc[n+]2C)C(C)=O)cc1C(C)(C)C` has a Survival of 50%. With `CCCCCCCCCCCCCCOc1ccc(C(=O)N(Cc2cccc[n+]2C)C(C)=O)cc1C(C)(C)C` the Survival was 64%. In the case of `CCCCCCCCCCCCCCOc1ccc(C(=O)N(Cc2cccc[n+]2CC)C(C)=O)cc1OC`, the Survival is reported as 58%. In the case of `CCCCCCCCCCCCCCOc1ccc(C(=O)NC(=O)c2ccc[n+](CCC)c2)cc1OC`, the Survival is reported as 42%. Work on `CCCCCCCCCCCCCCOc1ccc(CN(Cc2ccc[n+](C)c2)C(C)=O)cc1` yielded a Survival of 38%. Work on `CCCCCCCCCCCCCCCCCCNC(=O)Oc1ccc(C(=O)N(Cc2cccc[n+]2C)C(C)=O)cc1C(C)(C)C` yielded a Survival of 29%. For `CCCCCCCCCCCCCCOc1cccc(OP(=O)([O-])Oc2cccc(C[n+]3csc(C)c3)c2)c1C(=O)OC`, the Survival was 85%. Compound `CCCCCCCCCCCCCCOc1ccc(C(=O)N(Cc2cccc[n+]2Cc2ccccc2)C(C)=O)cc1` has a Survival of 0%. With `CCCCCCCCCCCCCCOc1ccc(C(=O)N(Cc2ccc[n+](C)c2)C(C)=O)cc1C(C)(C)C` the Survival was 17%. `CCCCCCCOc1ccc(C(=O)N(Cc2cccc[n+]2C)C(C)=O)cc1OCCCCCCC` was tested, and the Survival was 45%. For `CCCCCCCCCCCCCCOc1ccc(C(=O)NC(=O)c2cc[n+](CCC)cc2)cc1OC`, the Survival was 33%. `CCCCCCCCCCCCCCOc1ccc(C(=O)N(Cc2cccc[n+]2C)C(C)=O)cc1OC` showed a Survival of 58%. Work on `CCCCCCCCCCCCCCOc1ccc(COC(=O)NCc2cccc[n+]2CC)cc1` yielded a Survival of 36%. `CCCCCCCCCCCCCCOc1ccc(CN(Cc2cccc[n+]2CC)C(C)=O)cc1` showed a Survival of 40%. Compound `CCCCCCCCCCCCCCOc1ccc(C(=O)N(Cc2cccc[n+]2C)C(C)=O)cc1` has a Survival of 27%. In the case of `CCCCCCCCCCCCCCOc1ccc(C(=O)N(Cc2cccc[n+]2C)C(C)=O)cc1OCCCCCCCCCCCCCC`, the Survival is reported as 36%. `CCCCCCCCCCCCCCOc1ccccc1CN(Cc1cccc[n+]1C)C(C)=O` gave a Survival of 23%.

The compounds below were run on Oryctolagus cuniculus (assay: Protection of PAF induced lethality in rabbit after intraperitoneal dose of 1 mg/kg in saline 0.5 hr prior to an LD90 of PAF). Settings: ip.
Assay type: functional
Work on `CCCCCCCCCCCCCCOc1ccc(CN(Cc2cc[n+](C)cc2)C(C)=O)cc1` yielded a survival at 1 mg/kg of 0%. `CCCCCCCCCCCCCCOc1ccc(C(=O)N(Cc2cccc[n+]2C)C(C)=O)cc1C(C)(C)C` gave a survival at 1 mg/kg of 100%. With `CCCCCCCCCCCCCCOc1ccc(C(=O)N(Cc2cccc[n+]2CC)C(C)=O)cc1OC` the survival at 1 mg/kg was 33%. In the case of `CCCCCCCCCCCCCCOc1cccc(OP(=O)([O-])Oc2cccc(C[n+]3csc(C)c3)c2)c1C(=O)OC`, the survival at 1 mg/kg is reported as 53%. With `CCCCCCCOc1ccc(C(=O)N(Cc2cccc[n+]2C)C(C)=O)cc1OCCCCCCC` the survival at 1 mg/kg was 0%. Compound `CCCCCCCCCCCCCCOc1ccc(C(=O)N(Cc2cccc[n+]2C)C(C)=O)cc1OC` has a survival at 1 mg/kg of 75%.
